Experimental findings from patent US10508118B2, “Pyrimidopyrrole compounds, method for preparing the same, pharmaceutical compositions comprising the same and uses thereof” (Xiamen University, priority 2015, dated 2019) are described below.

Read-outs that look alike come from different tables or passages of the source. Where only a bound is given, the exact number is not on record here.

By IC50 is commonly meant the point on the concentration scale where inhibition reaches its midpoint.

What all share (format): cell-based
Assay [1] concerns the target T1, EML4-ALK-BaF3 (Homo sapiens, UniProt Q9UM73).
T1 construct: expressed in transfected cells; host or cells: Ba/F3 cells; the other entry of the earlier key: EML4 (Q9HC35, Echinoderm microtubule-associated protein-like 4)
The experiment in a line: Growth inhibition of EML4-ALK transformed BaF3 cells (MTS). To be noted: EML4-ALK-BaF3 cells, 48 hours, MTS. The protocol:
(§1) If compounds can inhibit the activity of ALK kinase or the activity of ALK signaling pathway, they can inhibit the growth of ALK transformed Ba/F3 cells. […] The broad-spectrum toxicity of compounds can be evaluated by determining the effect of the compounds on the growth of wild type BaF3 cells.
(§2) 1) Medium: DMEM (Dulbecco's modified eagle medium) or RPMI1640 (containing 10% fetal bovine serum, 100 μg/mL ampicillin, 100 μg/mL streptomycin).)
(§3) Reagents: MTS solution (2 mg/mL MTS (3-(4,5-dimethylthiazol-2-yl)-5-(3-carboxymethoxyphenyl)-2-(4-sulfophenyl)-2H-tetrazolium, inner salt); 100 μg/mL PES ([…])).
(§4) 3) Test of compound: Transformed Ba/F3 cells (EML4-ALK-BaF3, EML4-ALK(L1196M)-BaF3, NPM-ALK-BaF3) (2×10^4/well) were distributed into 96-well plates, with volume of cell sap of 90 μL, 10 μL of compounds in gradient concentration (the highest concentration 10 was μM, followed by 1/3 step by step dilution, a total of 8 concentrations were set, the system contained 0.1% DMSO (dimethyl sulfoxide)). The cell plates mixed with compounds were cultured in a cell incubator (37° C.; 5% CO2) for 48 hours, and the added 20 μL of MTS reaction solution, mixed and incubated in cell incubator (37° C.; 5% CO2) for 1-4 hours. The OD value at a wavelength of 490 nm was measured using eliasa (VARIOSKAN FLASH, Thermo). Three parallels were set up for each group, with a final concentration of 0.1% DMSO as negative control, and with medium without cells and compounds as blank control.
(§5) 4) Calculation of IC50 value: the semi inhibitory concentration of the compound acting on the cells was calculated using GradPad Prism 5 software according to the cell inhibitory rate measured.

Assay [2] deals with T2, NPM-ALK-BaF3 (Homo sapiens, UniProt Q9UM73).
T2 construct: expressed in transfected cells; host or cells: Ba/F3 cells; the other entry of the earlier key: NPM1 (P06748, Nucleophosmin)
The experiment in a line: Growth inhibition of NPM-ALK transformed BaF3 cells (MTS). To be noted: 48 hours, Table 11. The procedure: (§6) The activity of compounds against ALK kinase was evaluated by inhibiting the growth of cellular ALK kinase EML4-ALK-BaF3, EML4-ALK (L1196M)-BaF3, NPM-ALK-BaF3, and wild type BaF3 (Proc. Natl. Acad. Sci. USA., 2006, 103, 3153-8.) The growth of cellular ALK kinase EML4-ALK-BaF3, EML4-ALK(L1196M)-BaF3, and NPM-ALK-BaF3 depends on their kinase activity. If compounds can inhibit the activity of ALK kinase or the activity of ALK signaling pathway, they can inhibit the growth of ALK transformed Ba/F3 cells. […] The broad-spectrum toxicity of compounds can be evaluated by determining the effect of the compounds on the growth of wild type BaF3 cells.
as §2, §3
as §4, with “control. The inhibition rate of cell growth was calculated by the following formula: Cell inhibition rate %=1−(OD experimental group−OD blank group)/(OD negative group−OD blank group)*100%” for “control.”
as §5

Assay [3] has as its target T3, EML4-ALK (L1196M)-BaF3 (Homo sapiens, UniProt Q9UM73, L1196M).
T3 construct: expressed in transfected cells; host or cells: Ba/F3 cells; the other entry of the earlier key: EML4 (Q9HC35, Echinoderm microtubule-associated protein-like 4)
The experiment in a line: Growth inhibition of EML4-ALK (L1196M) transformed BaF3 cells (MTS). To be noted: 48 hours. The procedure:
as §1, §2, §3, §4, §5

Assay [4] deals with wild type BaF3. The assay can be described thus: Growth inhibition of wild type BaF3 cells (broad-spectrum toxicity). Particulars: Mus musculus, BaF3, 48 h, MTS. The procedure:
as §6, §2, §3
as §4, with “control. The inhibition rate of cell growth was calculated by the following formula: Cell inhibition rate %=1−(OD experimental group−OD blank group)/(OD negative group−OD blank group)*100%” for “control.”
as §5

[5] abbreviates: Table 11, read-out: EML4-ALK (L1196M) (IC50 nM).

On to `COc1cc(N2CCN(C)CC2)ccc1Nc1nc(Nc2ccccc2SC)c2[nH]ccc2n1` [IA-1], for which the IC50 in assay [1] (Table 11) was 1370 nM; in assay [2] it was 703 nM; in assay [3] (setting [5]) it was 1800 nM; in assay [4] (Table 11), around 2790 nM.

In the case of `CSc1ccccc1Nc1nc(Nc2ccc(N3CCC(O)CC3)cc2)nc2cc[nH]c12` [IA-2], the half-maximal inhibitory concentration (IC50) in assay [1] (Table 11) is 649 nM; in assay [2], 1030 nM; in assay [3] (setting [5]) it was 761 nM; in assay [4] (Table 11), 1520 nM.

For `CSc1ccccc1Nc1nc(Nc2ccc(S(N)(=O)=O)cc2)nc2cc[nH]c12` [IA-3], the IC50 in assay [1] (Table 11) was found to be 2420 nM; in assay [2], 12900 nM; in assay [3] (setting [5]), 6630 nM; in assay [4] (Table 11) it was 7710 nM.

As to `COc1cc(N2CCN(C)CC2)ccc1Nc1nc(Nc2ccccc2SC(C)C)c2[nH]ccc2n1` [IB-1], the IC50 in assay [1] (Table 11) was around 895 nM; in assay [2], 1450 nM; in assay [3] (setting [5]) it was around 2410 nM; in assay [4] (Table 11) it was around 2800 nM.

For the compound `CC(C)Sc1ccccc1Nc1nc(Nc2ccc(N3CCC(O)CC3)cc2)nc2cc[nH]c12` [IB-2], the IC50 in assay [1] (Table 11) is 786 nM; in assay [2], 1770 nM; in assay [3] (setting [5]) it was 1740 nM; in assay [4] (Table 11), 1920 nM.

As to `CC(C)Sc1ccccc1Nc1nc(Nc2ccc(S(N)(=O)=O)cc2)nc2cc[nH]c12` [IB-3], the half-inhibitory concentration (IC50) is 4220 nM in assay [1] (Table 11), 8830 nM in assay [2], 8700 nM in assay [3] (setting [5]) and above 10000 nM in assay [4] (Table 11).

For the compound `COc1cc(N2CCN(C)CC2)ccc1Nc1nc(Nc2ccccc2S(C)(=O)=O)c2[nH]ccc2n1` [IC-1], the IC50 in assay [1] (Table 11) was 3930 nM; in assay [2], around 4560 nM; in assay [3] (setting [5]), around 7250 nM; in assay [4] (Table 11) it was above 10000 nM.

On to `COc1cc(N2CCC(N3CCN(C)CC3)CC2)ccc1Nc1nc(Nc2ccccc2S(C)(=O)=O)c2[nH]ccc2n1` [IC-2], for which the 50% inhibitory concentration (IC50) in assay [1] (Table 11) was 3680 nM; in assay [2], around 4910 nM; in assay [3] (setting [5]), around 6860 nM; in assay [4] (Table 11) it was around 8770 nM.

On to `CS(=O)(=O)c1ccccc1Nc1nc(Nc2ccc(N3CCC(O)CC3)cc2)nc2cc[nH]c12` [IC-3], for which the IC50 in assay [1] (Table 11), in assay [2], in assay [3] (setting [5]) and in assay [4] (Table 11) was above 10000 nM in each case.

For `CS(=O)(=O)c1ccccc1Nc1nc(Nc2ccc(S(N)(=O)=O)cc2)nc2cc[nH]c12` [IC-4], the half-inhibitory concentration (IC50) in assay [1] (Table 11), in assay [2], in assay [3] (setting [5]) and in assay [4] (Table 11) was above 10000 nM throughout.

For `CN1CCN(c2ccc(Nc3nc(Nc4ccccc4S(C)(=O)=O)c4[nH]ccc4n3)cc2)CC1` [IC-5], the 50% inhibitory concentration (IC50) is 4080 nM in assay [1] (Table 11), 5260 nM in assay [2], around 3350 nM in assay [3] (setting [5]) and 4590 nM in assay [4] (Table 11).

Take `COc1cc(N2CCN(C)CC2)ccc1Nc1nc(Nc2ccccc2S(=O)(=O)C(C)C)c2[nH]ccc2n1` [ID-1]: the concentration for half-maximal inhibition (IC50) in assay [1] (Table 11) was 477 nM; in assay [2] it was 796 nM; in assay [3] (setting [5]), 737 nM; in assay [4] (Table 11), around 8390 nM.

Turning to `CC(C)S(=O)(=O)c1ccccc1Nc1nc(Nc2ccc(N3CCN(C)CC3)cc2)nc2cc[nH]c12` [ID-2], the 50% inhibitory concentration (IC50) in assay [1] (Table 11) was 1170 nM; in assay [2], around 2850 nM; in assay [3] (setting [5]) it was 2030 nM; in assay [4] (Table 11), around 8310 nM.

Regarding `CC(C)S(=O)(=O)c1ccccc1Nc1nc(Nc2ccc(N3CCC(O)CC3)cc2)nc2cc[nH]c12` [ID-4], the concentration for half-maximal inhibition (IC50) in assay [1] (Table 11) was 2860 nM; in assay [2] it was around 8930 nM; in assay [3] (setting [5]), 6150 nM; in assay [4] (Table 11), above 10000 nM.

Regarding `CC(C)S(=O)(=O)c1ccccc1Nc1nc(Nc2ccc(S(N)(=O)=O)cc2)nc2cc[nH]c12` [ID-5], the IC50 in assay [1] (Table 11), in assay [2], in assay [3] (setting [5]) and in assay [4] (Table 11) was above 10000 nM each time.

Turning to `Cc1cc(Nc2nc(Nc3ccccc3S(=O)(=O)C(C)C)c3[nH]ccc3n2)c(OC(C)C)cc1C1CCN(C)CC1` [ID-6], the IC50 is 1510 nM in assay [1] (Table 11), 1020 nM in assay [2], around 2650 nM in assay [3] (setting [5]) and around 2840 nM in assay [4] (Table 11).

With `COc1cc(C2CCN(C)CC2)c(C)cc1Nc1nc(Nc2ccccc2S(=O)(=O)C(C)C)c2[nH]ccc2n1` [ID-7], the IC50 is 544 nM in assay [1] (Table 11), around 1170 nM in assay [2], around 1080 nM in assay [3] (setting [5]) and around 2960 nM in assay [4] (Table 11).

Turning to `CC(C)S(=O)(=O)c1ccccc1Nc1nc(Nc2cnn(C3CCN(C)CC3)c2)nc2cc[nH]c12` [ID-8], the concentration for half-maximal inhibition (IC50) in assay [1] (Table 11) is 5170 nM; in assay [2], above 10000 nM; in assay [3] (setting [5]) it was 5680 nM; in assay [4] (Table 11) it was above 10000 nM.

With `COC(=O)c1ccccc1Nc1nc(Nc2ccc(N3CCN(C)CC3)cc2OC)nc2cc[nH]c12` [IG-1], the 50% inhibitory concentration (IC50) in assay [1] (Table 11) was found to be 1470 nM; in assay [2], 1800 nM; in assay [3] (setting [5]), 1160 nM; in assay [4] (Table 11), 2340 nM.

As for `COC(=O)c1ccccc1Nc1nc(Nc2ccc(N3CCC(N4CCN(C)CC4)CC3)cc2OC)nc2cc[nH]c12` [IG-2], the concentration for half-maximal inhibition (IC50) in assay [1] (Table 11) stood at 1200 nM; in assay [2], 1430 nM; in assay [3] (setting [5]) it was 1190 nM; in assay [4] (Table 11), 1800 nM.

As for `COC(=O)c1ccccc1Nc1nc(Nc2ccc(N3CCC(O)CC3)cc2)nc2cc[nH]c12` [IG-3], the IC50 was 2720 nM in assay [1] (Table 11), 6930 nM in assay [2], 5040 nM in assay [3] (setting [5]) and 6870 nM in assay [4] (Table 11).

With `COC(=O)c1ccccc1Nc1nc(Nc2ccc(S(N)(=O)=O)cc2)nc2cc[nH]c12` [IG-4], the concentration for half-maximal inhibition (IC50) in assay [1] (Table 11) came out at 5110 nM; in assay [2] it was 6100 nM; in assay [3] (setting [5]), 4940 nM; in assay [4] (Table 11) it was 8510 nM.

With `COC(=O)c1ccccc1Nc1nc(Nc2ccc(N3CCOCC3)cc2)nc2cc[nH]c12` [IG-5], the half-maximal inhibitory concentration (IC50) is 7800 nM in assay [1] (Table 11), above 10000 nM in assay [2], above 10000 nM in assay [3] (setting [5]) and above 10000 nM in assay [4] (Table 11).

`COC(=O)c1ccccc1Nc1nc(Nc2ccc(N3CCN(C)CC3)cc2)nc2cc[nH]c12` [IG-6]: the concentration for half-maximal inhibition (IC50) was 1370 nM in assay [1] (Table 11), 1740 nM in assay [2], 1520 nM in assay [3] (setting [5]) and around 3140 nM in assay [4] (Table 11).

With `COC(=O)c1ccccc1Nc1nc(Nc2ccc(N3CCC(N4CCCC4)CC3)cc2OC)nc2cc[nH]c12` [IG-7], the IC50 in assay [1] (Table 11) is 286 nM; in assay [2], 1210 nM; in assay [3] (setting [5]), 409 nM; in assay [4] (Table 11), around 994 nM.

For `COC(=O)c1ccccc1Nc1nc(Nc2ccc(OCc3ccccn3)cc2)nc2cc[nH]c12` [IG-8], the 50% inhibitory concentration (IC50) amounted to 1830 nM in assay [1] (Table 11), 1670 nM in assay [2], 1530 nM in assay [3] (setting [5]) and 3860 nM in assay [4] (Table 11).

As for `Cn1ccc2nc(Nc3ccc(S(N)(=O)=O)cc3)nc(NCc3ccccc3S(C)(=O)=O)c21` [IIK-4], the concentration for half-maximal inhibition (IC50) in assay [1] (Table 12) was above 10000 nM; in assay [3] (Table 12, read-out: L1196M (IC50 nM)), above 10000 nM; in assay [4] (Table 12) it was above 10000 nM.

In the case of `CN1CCN(c2ccc(Nc3nc(NCc4ccccc4S(C)(=O)=O)c4[nH]ccc4n3)cc2)CC1` [IN-5], the IC50 in assay [1] (Table 11), in assay [2] and in assay [3] (setting [5]) was above 10000 nM in each case.
